Experiment: gradient 5% acetonitrile 3 min, to 50% in 2 min, to 85% in 15 min, held 3 min, 100 µL/min
Details: column: Zorbax Extend-C18 2.1 x 50 mm; eluents: water / acetonitrile, 0.1% formic acid
Outline: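 Retention time was recorded from adduct peaks, which were picked computationally and each inspected manually. Pure standards ran in mixtures of ~100 molecules on HPLC coupled to a quadrupole time-of-flight mass spectrometer, in positive and negative ionization mode, through a Zorbax Extend-C18 column (2.1 × 50 mm, 1.8 μm) at 100 μL/min. Eluents were water and acetonitrile, each with 0.1% formic acid.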

| RP-LC retention time | Structure (SMILES) |
| --- | --- |
| 945 s | CCOC(=O)c1c(C)n(C)c2c1cc(O)c1ccccc12 |
| 640 s | O=C(NCc1ccccc1)c1ccc2c(c1)Sc1ncccc1C(=O)N2C1CC1 |
| 631 s | CC(C)C(=O)Nc1cc2c(cc1N(C)C)n(C)c(=O)c(=O)n2C |
| 992 s | O=C(Nc1ccc(N2CCOCC2)cc1)C1=Cc2cc(Cl)ccc2OC=C1 |
| 800 s | O=C1NCCCn2nc(C3CCN(S(=O)(=O)c4ccc5c(c4)CCC5)CC3)cc21 |
| 880 s | Cc1ccc(NC(=O)N2CCCC2c2cc(C)no2)c(Cl)c1 (stereo not drawn) |
| 804 s | CNC(=O)c1cnn(-c2cccc(C)c2)c1-n1cccc1 |
| 730 s | Cc1ccc(NS(=O)(=O)c2cc(-c3[nH]ncc3C(=O)N(C)C)oc2C)cc1Cl |
| 1070 s | CCSc1nc2ccc(NS(=O)(=O)c3cc(C)ccc3C)cc2s1 |
| 1030 s | CNC(=O)c1c(NC(=O)c2ccc(N(C)C)cc2)sc2c1CCC2 |
| 671 s | COc1ccc2oc(-c3noc(C(=O)NCCCN4CCCC4)n3)c(C)c2c1 |
| 770 s | CCN(CC)C(=O)CSc1nnc(-c2ccc3c(c2)OCCCO3)n1C(C)C |
| 665 s | CC(=O)N1CCC2(CC1)C(=O)N(C)c1ccccc12 |
| 763 s | Cc1ccc(-c2nc3ccc(C)cn3c2NC(=O)c2ccc(Cl)cc2)cc1 |
| 595 s | O=c1ccc(-c2cccc(Br)c2)nn1Cc1ccncc1 |
| 614 s | O=C([C@@H]1C[C@H](F)CN1C(=O)c1cccc(F)c1)N1CCOCC1 |
| 818 s | O=C(Cn1c(C(F)(F)F)nc2cc3c(cc21)OCCO3)NCc1ccc2c(c1)OCCCO2 |
| 570 s | O=C(c1ccco1)N1CCCC(Nc2ncnc3c2CCC3)C1 (stereo not drawn) |
| 957 s | Cc1ccc2[nH]cc(CCNC(=O)c3ccc(Cl)cc3Cl)c2c1 |
| 919 s | COc1ccc(-c2c(C(=O)Nc3ccc4c(c3)OCCO4)nc3ccccn23)cc1 |
| 982 s | COc1cc2c(cc1CNC(=O)COc1ccc(Cl)cc1)OCCCO2 |
| 959 s | Cc1ccc(-n2c(N3CCCC(C(=O)Nc4ccc(F)cc4)C3)nc3ccsc3c2=O)cc1 (stereo not drawn) |

| RP-LC retention time | Structure (SMILES) |
| --- | --- |
| 643 s | CNC(=O)c1ccc(Nc2c(-c3ccc(OC)cc3)nc3cnccn23)cc1 |
| 900 s | O=C(Cn1ccn2nc(-c3ccc(F)cc3)c(CO)c2c1=O)NCCC1=CCCCC1 |
| 681 s | COc1cc2ncnc(Nc3ccc(Cl)cc3F)c2cc1OC |
| 931 s | CCN(CC)S(=O)(=O)c1ccc(NC(=O)N2CCC(C(=O)Nc3ccc(Cl)cc3)CC2)s1 |
| 803 s | COC[C@@H]1CN(S(=O)(=O)c2ccccc2)C[C@H]1c1nc(C)no1 |
| 817 s | CCN1C(=O)c2cc(C(=O)NCc3ccccc3Cl)nn2CC1(C)C(=O)NC1CCCC1 (stereo not drawn) |
| 1010 s | COc1ccccc1-c1nnc(-c2ccc(OC)c(S(=O)(=O)N3CCCCCC3)c2)o1 |
| 942 s | Cc1ccc(S(=O)(=O)C(F)(F)F)cc1N1C(=O)c2ccccc2C1=O |
| 1000 s | O=c1ccn(-c2cccc(F)c2)nc1-c1nc(-c2ccc(Br)cc2)no1 |
| 835 s | COc1cccc(CNC(=O)Cn2c(=O)c3cc(-c4cccs4)nn3c3ncccc32)c1 |
| 566 s | Fc1ccc(Cl)cc1CN1CC(COc2cccnc2)C2(CCOCC2)C1 (stereo not drawn) |
| 659 s | Cn1nc2n(c1=O)CCN(S(=O)(=O)Cc1ccccc1)CC2 |
| 968 s | Cc1cccc(N2C(=O)CN(S(=O)(=O)c3ccccc3)CC2(C)C(=O)NC2CCCC2)c1C (stereo not drawn) |
| 1240 s | Cc1sc(-c2nc(-c3ccc(F)cc3)no2)cc1S(=O)(=O)N1CCN(c2ncccn2)CC1 |
| 802 s | CCN(CC)S(=O)(=O)c1ccc2c(c1)N(CC(=O)NCCCOC)C(=O)C1CCCCN21 (stereo not drawn) |
| 680 s | Cc1ccc(NC(=O)Cn2cnc3nc(N4CCCC(C(=O)NC5CC5)C4)sc3c2=O)c(F)c1 (stereo not drawn) |
| 650 s | OCCN1CCN(c2ncnc3c2cnn3-c2ccc(Cl)cc2)CC1 |
| 827 s | Cc1cc(C)cc(N2C(=O)CN(S(C)(=O)=O)CC2(C)C(=O)NCc2ccc(F)cc2)c1 (stereo not drawn) |
| 595 s | Cc1cc(C(=O)Nc2ccc3nc(N4CCN(C)CC4)cc(C)c3c2)ccc1[N+](=O)[O-] |
| 780 s | COc1ccc2[nH]cc(CCN3CC(C(=O)Nc4nnc(C(F)(F)F)s4)CC3=O)c2c1 (stereo not drawn) |
| 745 s | CSc1ccc(-c2nc3cnccn3c2Nc2ccc(C(=O)NC(C)C)cc2)cc1 |
| 903 s | CCCOc1ccc(CNC(=O)CN2CCN(Cc3ccc(F)cc3)C2=O)cc1 |

| RP-LC retention time | Structure (SMILES) |
| --- | --- |
| 785 s | O=C(NC1CC1)c1ccc(OCC2CCCN2C(=O)c2cc(F)ccc2F)cc1 (stereo not drawn) |
| 672 s | COc1ccc(-c2cc(N3CCN(C(=O)Nc4cc(OC)cc(OC)c4)CC3)ncn2)cc1 |
| 801 s | CCC(=O)Nc1ccc(C2(C(=O)N3CCCCCC3)CCC2)cc1 |
| 568 s | CNC(=O)C1CCN(c2nc3ccc(-c4ccncc4)nc3s2)CC1 |
| 1210 s | CCOc1ccc(-c2cc3c(=O)n(Cc4nc(-c5ccc(SC)cc5)no4)ncn3n2)cc1 |
| 586 s | CCCc1cc(N2CCN(C(=O)C3CC3)CC2)nc2nncn12 |
| 629 s | CNC(=O)N1CCCC1c1nc(C2CN(C(=O)c3cccn3C)C2)no1 (stereo not drawn) |
| 652 s | O=C(CN1CCN(c2ccccn2)CC1)N1c2ccccc2Sc2ccccc21 |
| 636 s | COc1ccc(-c2nn(CCCC(=O)N3CCN(c4ccccn4)CC3)c(=O)c3noc(C)c23)cc1 |
| 762 s | Cc1ccc(CNC(=O)N2CCC(n3c(-c4ccco4)nc4cccnc43)C2)cc1 (stereo not drawn) |
| 705 s | CCc1nnc(-c2ccc3ccn(CC(=O)Nc4cc(C)ccn4)c3c2)o1 |
| 609 s | COc1ccc(C2c3cc4c(c(OC)c3CC3OCC(=O)C32)OCO4)cc1OC (stereo not drawn) |
| 950 s | Cc1cc(C)cc(NC(=O)c2[nH]c(C)c(S(=O)(=O)N3CCCC3)c2C)c1 |
| 955 s | Cc1cc(C)cc(N2CCC(NC(=O)Nc3cc(C)ccc3C)C2=O)c1 (stereo not drawn) |
| 642 s | Cc1cc(Cl)ccc1S(=O)(=O)N1CCC2(CCC(CN3CCN(C)CC3)O2)CC1 (stereo not drawn) |
| 667 s | O=C1c2ccccc2C(=O)N1c1ncn[nH]1 |
| 668 s | O=C(Nc1cccc(-c2cn3cccnc3n2)c1)c1c(F)cccc1F |
| 759 s | CCn1c(=O)n(CC)c2cc(S(=O)(=O)c3ccc(C)cc3)c(NC(C)=O)cc21 |
| 762 s | Cc1cc(C)c(S(=O)(=O)Nc2ccc(Cn3cncn3)cc2)cc1C |
| 589 s | Cc1nc(NC(=O)CCn2cnc3ccccc3c2=O)sc1C(=O)N(C)C |
| 877 s | Cc1noc(C)c1S(=O)(=O)N1CCC(C(=O)NCCc2csc(-c3ccccc3)n2)CC1 |
| 734 s | COCCc1noc(-c2cnc3nc(C)ccc3c2NC2CCCCCC2)n1 |

| RP-LC retention time | Structure (SMILES) |
| --- | --- |
| 595 s | CCOC(=O)CC1(NC(=O)N2CCCn3nc(-c4ccncc4)cc3C2)CCCCC1 |
| 915 s | Cc1ccc(CNC(=O)Cc2nnc(-c3ccc4ncccc4c3)o2)cc1C |
| 826 s | Cc1ccccc1CN1N=C(C(=O)N2CCOCC2)S(=O)(=O)c2ccccc21 |
| 660 s | CCN(CC)c1ncc2c(n1)CCC(C(=O)Nc1cccc(C(=O)OC)c1)C2 (stereo not drawn) |
| 623 s | CC1(C)NC(=O)N(CCCCCCN2C(=O)NC(C)(C)C2=O)C1=O |
| 912 s | CCCC(=O)Nc1ccc(C(=O)Nc2nc(-c3ccccc3)cs2)cc1 |
| 629 s | COc1ccc(NC(=O)N2CCC(CN3CCCC(C)C3)CC2)cc1Cl (stereo not drawn) |
| 883 s | COc1ccc(C2C(=O)N(C3CCC(C)CC3)CC(=O)N2Cc2ccco2)cc1OC (stereo not drawn) |
| 766 s | O=C([C@@H]1C[C@H](F)CN1C(=O)Nc1cc(F)cc(F)c1)N1CCCCC1 |
| 657 s | CNC(=O)C1CCCN(S(=O)(=O)c2ccc(OC)c(OC)c2)C1 (stereo not drawn) |
| 807 s | O=C(Cc1c[nH]c2ccccc12)NC1(c2nc(-c3ccncc3)no2)CCCCC1 |
| 858 s | CCOc1cc(C(=O)NC2CCN(c3cc(-c4ccc(F)cc4)[nH]n3)C2)cc(OCC)c1OCC (stereo not drawn) |
| 945 s | Cc1ccc(NC(=O)c2cccn2Cc2noc(C)n2)c(Cl)c1 |
| 978 s | COc1ccc(-c2ncc3c(n2)CCN(C(=O)Nc2ccc(Cl)cc2)C3)cc1 |
| 571 s | CCCN1CCN(CCCNC(=O)C(C)n2c3ccccc3c3cnn(C)c(=O)c32)CC1 (stereo not drawn) |
| 798 s | COc1ccc(-c2nc3cnccn3c2Nc2ccc(C(=O)NC3CCCCC3)cc2)cc1 |
| 1060 s | CCOc1cccc(-c2noc(Cn3c(=O)n(Cc4ccc(OC)cc4)c(=O)c4sccc43)n2)c1 |
| 691 s | O=C(CN1C(=O)COc2ccc(C(=O)N3CCCCC3)cc21)NCc1ccco1 |
| 674 s | Cc1[nH]c(C(=O)N2CCC(CC(=O)NCCc3c[nH]c4ccccc34)CC2)c(C)c1C |
| 872 s | CCOc1ccc(N2C=C(C(=O)N3CCCC3)S(=O)(=O)c3ccc(F)cc32)cc1 |
| 762 s | O=C1Nc2cc(C(=O)N3CCCCC3)ccc2N2CCCCC12 (stereo not drawn) |
| 615 s | C=CCNC(=O)CCc1c(-c2ccc(Cl)cc2)nc2ccccn12 |
